Activity calls are given as the source filed them. The rule behind the calls is not given here.
Key:
[1] = Cytotoxicity against mouse RAW264.7 cells assessed as cell viability at 50 uM measured after 24 hrs by MTT assay; assay type: toxicity, cell-based; details: read-out: Activity
[2] = Cytotoxicity against mouse RAW264.7 cells assessed as maximal safe dose measured after 24 hrs by MTT assay; assay type: toxicity, cell-based; details: read-out: MTD
[3] = test system: RAW264.7; test: cells; details: Mus musculus, RAW264.7, 24 h
Description: Anti-inflammatory activity against mouse RAW264.7 cells assessed as inhibition of LPS-induced NO production measured after 24 hrs incubation by Griess analysis

[4] = test system: Mus musculus; test: Anti-inflammatory activity against carrageenan-induced hind paw edema mouse model assessed as reduction in cellular infiltration in connective tissue at 10 mg/kg, po; assay type: functional, organism-based
[5] = Gastric ulcerogenic activity in mouse assessed as mucosal erosion and inflammatory cellular infiltration at 2.5 to 10 mg/kg, po by hematoxylin and eosin staining based assay; assay type: toxicity, organism-based; details: in vivo, dose 2.5-10 mg/kg
[6] = test system: Mus musculus; test: Anti-inflammatory activity against carrageenan-induced paw edema in ICR mouse model assessed as reduction in TNF-alpha level in serum at 10 mg/kg, po measured after 5 hrs by ELISA relative to control; assay type: functional
[7] = test system: Mus musculus; test: Anti-inflammatory activity against carrageenan-induced paw edema in ICR mouse model assessed as reduction in IL-6 level in serum at 10 mg/kg, po measured after 5 hrs by ELISA relative to control; assay type: functional
[8] = test system: Mus musculus; test: Anti-inflammatory activity against carrageenan-induced hind paw edema mouse model assessed as decrease in COX-2 expression in connective tissue at 10 mg/kg, po; assay type: functional, organism-based

Compound | viability at 24 h, 50 µM [1] [%] | MNTC at 24 h [2] [µg/mL] | IC50 [3] [µM] | further results
Cc1cccc(-n2nc(C(=O)OCc3c(-c4ccccc4)no[n+]3[O-])nc2CCl)c1 | > 95 | ~20 | 6.1 | 
O=C(OCc1c(-c2ccccc2)no[n+]1[O-])c1nc(CCl)n(-c2cccc(F)c2)n1 | > 95 | ~20 |  | 
COc1ccc2c(c1)c(CC(=O)O)c(C)n2C(=O)c1ccc(Cl)cc1 [INDOMETHACIN] |  |  | 56.8 | Activity [4]: Active; Activity [5]: Toxic; inhibition in vivo at 10 mg/kg [6]: 29.8%; inhibition in vivo at 10 mg/kg [7]: 44%; Activity [8]: Active
O=C(OCc1c(-c2ccccc2)no[n+]1[O-])c1nc(CCl)n(-c2ccc(F)cc2)n1 | > 95 | ~20 |  | 
[O-][n+]1ccno1 |  |  | 50 | 
O=C(OCc1c(-c2ccccc2)no[n+]1[O-])c1nc(CCl)n(-c2cccc(C(F)(F)F)c2)n1 | > 95 | ~20 |  | Activity [5]: Non-Toxic
O=C(OCc1c(-c2ccccc2)no[n+]1[O-])c1nc(CCl)n(-c2ccccc2F)n1 | > 95 | ~20 | 14.6 | 
O=C(OCc1c(-c2ccccc2)no[n+]1[O-])c1nc(CCl)n(-c2ccccc2)n1 | > 95 | ~20 |  | 
COc1ccc(-n2nc(C(=O)OCc3c(-c4ccccc4)no[n+]3[O-])nc2CCl)cc1 | > 95 | ~20 |  | 
O=C(OCc1c(-c2ccccc2)no[n+]1[O-])c1nc(CCl)n(-c2ccc(C(F)(F)F)cc2)n1 | > 95 | ~20 |  | 
O=C(OCc1c(-c2ccccc2)no[n+]1[O-])c1nc(CCl)n(-c2ccccc2C(F)(F)F)n1 | > 95 | ~20 | 13.8 | 
Cc1ccc(-n2nc(C(=O)OCc3c(-c4ccccc4)no[n+]3[O-])nc2CCl)cc1 | > 95 | ~20 |  | 
N#Cc1ccc(-n2nc(C(=O)OCc3c(-c4ccccc4)no[n+]3[O-])nc2CCl)cc1 | > 95 | ~20 |  | 

Source: ChEMBL document CHEMBL5620357, “Synthesis and anti-inflammatory activity evaluation of NO-releasing furoxan/1,2,4-triazole hybrid derivatives” (Eur J Med Chem, 2023)
